Experimental data from patent US11629141B2, “Proteasome inhibitors and uses thereof” (CORNELL UNIVERSITY, priority 2015, dated 2023).
Entries after “also recorded” stand apart in the source; their conditions may differ. Where two headings read alike, the source gives them in different places.

What was measured:
[1] = target: T1, human immunoproteasome β5i (Homo sapiens, UniProt P28062); assay: IC50 against chymotryptic β5i activity of human immunoproteasome (96-well plate, Ac-ANW-AMC); format: biochemical
T1 construct: purchased Boston Biochem Inc
Procedure: A 96-well-plate assays were used to determine the IC50s against the chymotryptic β5 activities of the proteasomes. Both human constitutive proteasome and immunoproteasome were purchased from Boston Biochem Inc. 1 μL of 100× compound in DMSO at designated concentrations were spotted at the bottom of the wells. DMSO was used as a control. […] The hydrolysis of the substrate over time in each well was monitored at excitation 360 nm, emission 460 nm for 90 minutes. IC50s were estimated by fitting the velocities of hydrolysis against compound concentrations using PRISM. […] SDS (0.02%) was used as activator, and 0.01% BSA was used in the reaction buffer.

[2] = tested on: Pf Gametocytes; assay: Gametocyte killing assay (DilC1(5), flow cytometry); format: cell-based; conditions: Plasmodium falciparum; NF54 peg4-tdTomato, 72 hour incubation; read-out: EC50 against Pf Gametocytes
Procedure: Asexual replication of NF54 peg4-tdTomato parasites was eliminated by treating with 50 mM GlcNAc and 20 U/mL Heparin for 3 days. NF54 peg4-tdTomato parasites then were maintained using standard culture techniques. Gametocytes were induced synchronously according to Fivelman et al., “Improved Synchronous Production of Plasmodium Falciparum Gametocytes in Vitro,” Mol Biochemo Parasitol. 154(1):119-123 (2007), which is hereby incorporated by reference in its entirety. Asexual replication was eliminated by treating with 50 mM GlcNAc for 3 days. Gametocyte killing assays were setup on days 5 and 10 in triplicate 96-well format at 1% hematocrit and 2% gametocytemia. Compounds were setup in triplicate and serially diluted 3-fold. In addition, 6 solvent controls (DMSO) were distributed evenly across the plate. Following a 72 hour incubation, Stage III-IV (Day 5-7) and Stage IV-V (Day 10-12), (start the incubation in the afternoon on Day 5 and Day 10, take out plate for assay on Day8 and Day13 afternoon) cultures were stained with 16 nM Hoechst 33342 and 50 nM DilC1(5) for 30 min at 37 C. Using a Cytek DxP12 flow cytometer, gametocytemia was determined by gating for DNA+, hemozoin-high cells and gametocyte viability was inferred based on mitochondrial membrane potential-dependent accumulation of DilC1(5) for 2000-3000 gametocytes (Tanaka et al., “Potent Plasmodium Falciparum Gametocytocidal Activity of Diaminonaphthoquinones, Lead Antimalarial Chemotypes Identified in an Antimalarial Compound Screen,” Antimicrob. Agents Chemother. 2015, 59:1389 (2015), which is hereby incorporated by reference in its entirety). Mean DilC1(5) signal was normalized to solvent control and the overall minimum and used to calculate the EC50 (FIG. 3 and Table 4).

[3] = target: T2, human constitutive proteasome β5c (Homo sapiens, UniProt P28074); assay: IC50 against chymotryptic β5c activity of human constitutive proteasome (96-well plate, Suc-LLVY-AMC); format: biochemical
T2 construct: purchased Boston Biochem Inc
Procedure: A 96-well-plate assays were used to determine the IC50s against the chymotryptic β5 activities of the proteasomes. Both human constitutive proteasome and immunoproteasome were purchased from Boston Biochem Inc. 1 μL of 100× compound in DMSO at designated concentrations were spotted at the bottom of the wells. DMSO was used as a control. Final concentrations of the inhibitors were from 100 μM to 0.098 μM. The hydrolysis of the substrate over time in each well was monitored at excitation 360 nm, emission 460 nm for 90 minutes. IC50s were estimated by fitting the velocities of hydrolysis against compound concentrations using PRISM. […] Suc-LLVY-AMC was used for βc at final concentration of 25 μM, and Ac-ANW-AMC for b5i at final concentration of 15 μM. SDS (0.02%) was used as activator, and 0.01% BSA was used in the reaction buffer.
The foregoing features of these AsnEDA encouraged a further round of SAR studies (Table 5) based on varying the carboxylic acid at the ethylenediamine, the N-cap at the Asn, and the side chain of the Asn, based on PKS21004. All compounds listed in the Table 5 were synthesized as described in Examples 6-77. All final compounds were confirmed by NMR and HRMS. IC50s of all compounds against β5i and β5c (Table 5), β1i, β2i, β1c and β2c were determined following a reported method (Lin et al., “N,C-Capped Dipeptides With Selectivity for Mycobacterial Proteasome Over Human Proteasomes: Role of S3 and S1Binding Pockets,” J Am Chem Soc. 135:9968-9971 (2013), which is hereby incorporated by reference in its entirety). […] The [1,1′-biphenyl]-3-carboxamide of PKS21004 was then modified with the following substituents: 4′-fluoro (PKS21026), 4′-cyano (PKS21028), 4-fluoro (PKS21196), 4,3′-difluoro (PKS21195) and 4,2′-difluoro (PKS21187).

[4] = tested on: Plasmodium falciparum; assay: Growth of Plasmodium falciparum in red blood cells (SYBR Green, 72 hours); format: cell-based
Procedure: Continuous in vitro cultures of Plasmodium falciparum: were maintained in human red blood cells (RBC) diluted to a hematocrit of 5% in RPMI 1640 medium with HEPES and Hypoxanthine and completed with 0.5% Albumax II (Invitrogen), 0.25% sodium bicarbonate, and 0.1 mg/ml gentamicin. Parasites were incubated at 37° C. in a gas mixture of 5% oxygen, 5% carbon dioxide, and 90% nitrogen.
Parasite sensitivity to novel compounds were determined using a SYBR Green (Invitrogen S1046) drug assay protocol. P. falciparum of various clinic stains were cultured with compounds at concentrations in a series of dilution in a clear, sterile 96-well plate for 72 hours. Subsequently, 150 μl of the cultures were transferred to a black 96-well plate and placed in the freezer for red blood cell lysis. The plates were thawed and suspended in a Sybr Green Lysis buffer. GraphPad Prism was used to analyze the raw data collected […]. Drug concentrations were converted to logarithms, normalized, and then curve fitted by non-linear regression to obtain EC50 values.
Plasmodium falciparum: parasites were cultured in human red cells. Drug assays were run in 96 well plates at a total volume of 200 μl. Assays were set up at a starting parasitemia (percent of infected red cells) of 0.5%. Test compounds were plated at concentrations of 2778 nM to 0.4 nM. The test plates were grown under standard low oxygen conditions at 37° C. for 72 hours. At that time the plates were prepared for growth determination, first the plates were frozen and thawed to lyse the red blood cells, 150 μl of the lysed thawed culture was transferred to a black 96 well plate, and mixed in a lysis buffer with SYBR green DNA dye. The fluorescence of each well was recorded in a plate reader with excitation wavelength 490 nm and emission wavelength 530 nm and normalized relative to DMSO control. The EC50s were determined using Prism software.

[5] = tested on: Pf20S β5; assay: Labeling of Pf20S active subunits by activity probe MV151 in Pf lysates; format: biochemical, P. falciparum; conditions: 1 hour with inhibitor, then MV151 (2 μM) 1 hour
Procedure: Pf lysates were incubated with inhibitors at indicated concentrations for 1 hour prior to incubation with MV151 (2 μM) for an additional hour. SDS pages were scanned on a Typhoon fluorescent scanner. […] BTZ was used as a positive control.

[6] = tested on: Karpas1106P B lymphoma cells; assay: Cell viability assay, Karpas1106P; format: cell-based; conditions: Homo sapiens, Karpas-1106P; cytotoxicity, 72 hours
Procedure: (§1) Multiple myeloma cell lines MM.1 S (200,000 cells/mL) and RPMI 8226 (200,000 cells/mL), B lymphoma cell line Karpas1106P (800,000 cells/mL), and liver cancer cell line HepG2 (12,000 cells/mL) were used to determine the cytotoxicity of compounds. Cells were cultured at 37° C. in a humidified air/5% CO2 atmosphere in medium supplemented with 10% fetal bovine serum, except for the medium for Karpas-1106P cells which contained 20% fetal bovine serum, and 100 units/ml penicillin/100 […] streptomycin in RPMI 1640 medium. 12,000 cells/well. Cells plated in a 96-well plate were treated with compounds at the indicated concentrations for 72 hours at 37° C. in a tissue culture incubator with 5% CO2. Viable cells were counted using Cell-titer/glom assay kit. EC50s were calculated using PRISM (Graphpad).

[7] = target: T3, hu i-20S β5i (Homo sapiens, UniProt P28062); assay: Kinetic analysis, substrate titration of hu i-20S steady state velocities; format: biochemical
T3 construct: purchased Boston Biochem Inc
Procedure: FIGS. 1A-1E are graphs showing inhibition modality of PKS21004 against human proteasomes. Washout of c-20S from the preincubated c-20S and […] to recover the β5c activity (FIG. 1A). Substrate titration of hu i-20S (FIG. 1B) and c-20S (FIG. 1D) steady state velocities in the presence of PKS21004 at the concentrations indicated next to each curve. Data as in (FIG. 1B) were plotted double reciprocal in (FIG. 1C), and (FIG. 1D) in (FIG. 1E).
A washout experiment was used to confirm the reversibility of this class of proteasome inhibitors, as expected from their non-covalent chemistry.

[8] = tested on: MM1.S multiple myeloma cells; assay: Cell viability assay, MM.1S; format: cell-based; conditions: Homo sapiens, cytotoxicity, 72 hours
Procedure: as §1

[9] = tested on: β5 in Karpas 1106P cells; assay: Intracellular β5 inhibition in Karpas 1106P cells (suc-LLVY-luciferin); format: cell-based; conditions: 2 hours treatment
From the text: (§2) Data were average of three independent experiments.
(§3) IC50 values with both substrates were identical and indicated cell-penetrating ability. […] No β5i activity was detected in HepG2 cells using (Ac-ANW)2—R110 as substrate (FIG. 2A).

[10] = tested on: HepG2 liver cancer cells; assay: Cell viability assay, HepG2; format: cell-based; conditions: Homo sapiens, cytotoxicity, 72 hours
Procedure: as §1

[11] = tested on: RPMI 8226 multiple myeloma cells; assay: Cell viability assay, RPMI 8226; format: cell-based; conditions: Homo sapiens, cytotoxicity, 72 hours
Procedure: as §1

[12] = target: T4, β5i in Karpas 1106P cells (Homo sapiens, UniProt P28062); assay: Intracellular β5i inhibition in Karpas 1106P cells ((Ac-ANW)2-R110); format: cell-based; conditions: 2 hours treatment
T4 construct: endogenous in cells; host or cells: Karpas 1106P
From the text: as §2, §3

[13] = target: T5, β5c in HepG2 cells (Homo sapiens, UniProt P28074); assay: Intracellular β5c inhibition in HepG2 cells (suc-LLVY-luciferin); format: cell-based; conditions: 2 hours treatment, read-out: IC50 HepG β5c
T5 construct: endogenous in cells; host or cells: HepG2
From the text: as §2, §3

[14] = β5i, substrate Ac-ANW-AMC, read-out: IC50 Hu i-20S (Ac-ANW-AMC)
[15] = β5c, substrate Suc-LLVY-AMC, read-out: IC50 Hu c-20S (Suc-LLVY-AMC)
[16] = Erythrocyte, P.f. 3D7, growth in red blood cells, read-out: EC50 (nM) (P.f.)

Question: Which results are given for Cc1cc(C(=O)N[C@@H](CC(=O)NC(C)(C)C)C(=O)NCCNC(=O)c2cc(-c3ccccc3)ccn2)no1 [PKS21224]?
Answer: IC50 [1, 14]: 746 nM; EC50 [2]: 162 nM; IC50 [3, 15]: 33700 nM; EC50 [4, 16]: 11 nM

Question: For CC(C)(C)NC(=O)C[C@H](NC(=O)CCc1ccccc1)C(=O)NCCNC(=O)c1ccc(-c2ccccc2)cc1 [PKS21003], which “labeling of Pf20S β5 by MV151” value [5] is on record?
Answer: did not

Question: What about the IC50 [1, 14] of the same molecule?
Answer: > 100000 nM

Question: And the IC50 [3, 15]?
Answer: > 100000 nM

Question: And the EC50 ([4]; D6, Erythrocyte, read-out: EC50s against P. falciparum strain D6)?
Answer: > 2770 nM

Question: What about the EC50 ([4]; DD2, Erythrocyte, read-out: EC50s against P. falciparum strain Dd2) of the same molecule?
Answer: > 2770 nM

Question: And the EC50 [4, 16]?
Answer: > 2770 nM

Question: And the EC50 ([4]; Erythrocyte, read-out: EC50s against P. falciparum strain IPC 3663)?
Answer: > 2770 nM

Question: What about the EC50 ([4]; Erythrocyte, read-out: EC50s against P. falciparum strain IPC 4884) of the same molecule?
Answer: > 2770 nM

Question: And the EC50 ([4]; Erythrocyte, read-out: EC50s against P. falciparum strain IPC 5188)?
Answer: > 2770 nM

Question: What about the EC50 ([4]; Erythrocyte, read-out: EC50s against P. falciparum strain Sb1-a6) of the same molecule?
Answer: > 2770 nM

Question: And the EC50 ([4]; Erythrocyte, read-out: EC50s against P. falciparum strain V1S)?
Answer: > 2770 nM

Question: And the EC50 ([4]; HB3, Erythrocyte, read-out: EC50s against P. falciparum strain HB3)?
Answer: > 2770 nM

Question: Which EC50 [6] does the source give for Cc1ccc(S(=O)(=O)N[C@@H](CC(=O)NC(C)(C)C)C(=O)NCCNC(=O)c2cc(-c3ccccc3F)ccc2F)cc1 [PKS21221] here?
Answer: 840 nM

Question: And the “α for i-20S (β5i)” value ([7]; fit to equation for noncompetitive inhibitors)?
Answer: 0.26

Question: What about the “modality of inhibition of β5i” value ([7]; with respect to substrate) of the same molecule?
Answer: noncompetitively inhibits; also recorded: noncompetitive

Question: And the EC50 [8]?
Answer: 95 nM

Question: What about the IC50 ([1]; IC50 Hu i-20S (Ac-ANW-AMC), β5i, substrate Ac-ANW-AMC) of the same molecule?
Answer: 4.1 nM

Question: And the IC50 ([1]; b406, read-out: IC50 against β5i)?
Answer: 2.4 nM

Question: And the IC50 [3]?
Answer: 106 nM

Question: And the IC50 ([3]; b406, read-out: IC50 against β5c)?
Answer: 70 nM

Question: And the IC50 [9]?
Answer: 118 nM

Question: And the EC50 [10]?
Answer: 3000 nM

Question: And the EC50 [11]?
Answer: 75 nM

Question: What about the IC50 [12] of the same molecule?
Answer: 172 nM

Question: What about the EC50 [4, 16] of the same molecule?
Answer: 0.55 nM

Question: What about the IC50 [13] of the same molecule?
Answer: 2000 nM

Question: Which results are given for CC(C)(C)NC(=O)C[C@H](NC(=O)CCc1ccccc1)C(=O)NCCNC(=O)c1cccc2ccccc12 [PKS3080]?
Answer: IC50 [1, 14]: 370 nM; IC50 [3, 15]: 1220 nM; EC50 [4, 16]: 23 nM
